Test results as given in patent publication US20260167623A1 (NIKANG THERAPEUTICS, INC., priority 2022, published 2026).

Target: T1, CDK2 (Homo sapiens, UniProt P24941)
T1 construct: High-Throughput Measurement of Cellular Endogenous CDK2; endogenous in cells; host or cells: OVCAR3
Experiment: Inhibition of CDK2: phospho-Rb (S807/811) HTRF measurement in OVCAR3 cells, 24 h
Type: cell-based
Settings: 24 h compound treatment, read-out: pRB_OVCAR3_24h
Experimental: Inhibition of CDK2: Phospho-R^b Measurement in Cells
Phosphorylation of RB protein at S807/811 were measured using HTRF phospho-RB cellular kits (Cat #64RBS807PEG) from Cisbio.
On Day 1, OVCAR3 (CDK2 dependent cell line) cells were seeded into 96-well tissue-culture treated plates at 20,000 cells/well in 200 μL and incubated overnight at 37° C. in CO2 atmosphere. On Day 2, the cells were treated with test compounds at concentrations from 0.3 to 10,000 nM using HP D300 digital dispenser. Twenty-four hours after compound treatment, cell culture media is removed by flicking the plate and tapping the plate against clean paper towel. 30 μL 1× lysis buffer was supplemented from the kit was added to each well and the plate was incubated at room temperature on shaker for 30 min. After homogenization by pipetting up and down, 8 μL cell lysate from 96-well cell culture plate was transferred to 384-well small volume white detection plate. 2 μL premixed detection solution was added and the plate was covered with sealer. To prepare the detection solution, d2 conjugated-phospho-RB antibody and Eu-cryptate conjugated phosphor-RB antibody were diluted into detection buffer following manufacturer's instruction. Detection plates were incubated for 4 h at room temperature and read on ClarioStar (BMG Labtech) in TR-FRET mode (665 nM and 620 nM). The TR-FRET ratio (665 nM/620 nM) was plotted against the compound concentration and normalized to DMSO controls. Half maximal inhibition concentration (IC50) values were calculated with a four-parameter logistic fit using GraphPad Prism (version 8; La Jolla, CA).

| Structure (SMILES) | IC50 |
| --- | --- |
| COc1cnc(NC2CCN(S(=O)(=O)c3cccc(CN4CCC(c5ccc6c(N7CCC(=O)NC7=O)nn(C)c6c5)CC4)c3)CC2)nc1 [Example 57, 1-(6-(1-(3-((4-((5-methoxypyrimidin-2-yl)amino)piperidin-1-yl)sulfonyl)benzyl)-piperidin-4-yl)-1-methyl-1H-indazol-3-yl)dihydropyrimidine-2,4(1H,3H)-dione] | 500 to 2500 nM |
| Cn1nc(N2CCC(=O)NC2=O)c2ccc(C3CCN(C[C@@H]4CCN(c5cccc(S(=O)(=O)N6CCC(Nc7ncc(Cl)cn7)CC6)c5)C4)CC3)cc21 [Example 135, (S)-1-(6-(1-((1-(3-((4-((5-chloropyrimidin-2-yl)amino)piperidin-1-yl)sulfonyl)phenyl)-pyrrolidin-3-yl)methyl)piperidin-4-yl)-1-methyl-1H-indazol-3-yl)dihydropyrimidine-2,4(1H,3H)-dione] | 100 to 500 nM |
| O=C1CCC(N2C(=O)c3cc(F)c(N4CCN(CC5CCN(c6cccc(S(=O)(=O)N7CCC(Nc8ncc(C(F)(F)F)cn8)CC7)c6)CC5)CC4)cc3C2=O)C(=O)N1 (centres unmarked) [Example 80, 2-(2,6-dioxopiperidin-3-yl)-5-fluoro-6-(4-((1-(3-((4-((5-(trifluoromethyl)pyrimidin-2-yl)amino)piperidin-1-yl)sulfonyl)phenyl)-piperidin-4-yl)methyl)piperazin-1-yl)isoindoline-1,3-dione] | 100 to 500 nM |
| O=C1CCC(N2C(=O)c3cc(F)c(N4CCN(Cc5cccc(S(=O)(=O)N6CCC(Nc7ncc(C(F)(F)F)cn7)CC6)c5)CC4)cc3C2=O)C(=O)N1 (centres unmarked) [Example 72, 2-(2,6-dioxopiperidin-3-yl)-5-fluoro-6-(4-(3-((4-((5-(trifluoromethyl)pyrimidin-2-yl)amino)piperidin-1-yl)sulfonyl)benzyl)-piperazin-1-yl)isoindoline-1,3-dione] | 500 to 2500 nM |
| Cn1nc(N2CCC(=O)NC2=O)c2ccc(C3CCN(CC4CCN(c5cc(S(=O)(=O)N6CCC(Nc7ncc(Cl)cn7)CC6)ccc5F)CC4)CC3)cc21 [Example 140, 1-(6-(1-((1-(5-((4-((5-chloropyrimidin-2-yl)amino)piperidin-1-yl)sulfonyl)-2-fluorophenyl)piperidin-4-yl)methyl)-piperidin-4-yl)-1-methyl-1H-indazol-3-yl)dihydropyrimidine-2,4(1H,3H)-dione] | 1 to 100 nM |
| Cn1nc(N2CCC(=O)NC2=O)c2ccc(C3CCN(Cc4cncc(S(=O)(=O)N5CCC(Nc6ncc(C(F)(F)F)cn6)CC5)c4)CC3)cc21 [Example 130, 1-(1-methyl-6-(1-((5-((4-((5-(trifluoro-methyl)pyrimidin-2-yl)amino)piperidin-1-yl)sulfonyl)pyridin-3-yl)methyl)piperidin-4-yl)-1H-indazol-3-yl)dihydropyrimidine-2,4(1H,3H)-dione] | 1 to 100 nM |
| Cn1nc(N2CCC(=O)NC2=O)c2ccc(C3CCN(Cc4cccc(S(=O)(=O)N5CCC(Nc6ncc(C(F)F)cn6)CC5)c4)CC3)cc21 [Example 13, 1-(6-(1-(3-((4-((5-(difluoromethyl)-pyrimidin-2-yl)amino)piperidin-1-yl)sulfonyl)benzyl)piperidin-4-yl)-1-methyl-1H-indazol-3-yl)dihydropyrimidine-2,4(1H,3H)-dione] | 100 to 500 nM |
| Cn1nc(N2CCC(=O)NC2=O)c2ccc(C3CCN(CCOc4cccc(S(=O)(=O)N5CCC(Nc6ncc(C(F)(F)F)cn6)CC5)c4)CC3)cc21 [Example 123, 1-(1-methyl-6-(1-(2-(3-((4-((5-(trifluoro-methyl)pyrimidin-2-yl)amino)piperidin-1-yl)sulfonyl)phenoxy)ethyl)piperidin-4-yl)-1H-indazol-3-yl)dihydropyrimidine-2,4(1H,3H)-dione] | 1 to 100 nM |
| O=C1CCN(c2ccc(N3CCN(Cc4cccc(S(=O)(=O)N5CCC(Nc6ncc(C(F)(F)F)cn6)CC5)c4)CC3)cc2)C(=O)N1 [Example 82, 1-(4-(4-(3-((4-((5-(trifluoromethyl)-pyrimidin-2-yl)amino)piperidin-1-yl)sulfonyl)benzyl)piperazin-1-yl)phenyl) dihydropyrimidine-2,4(1H,3H)-dione] | 500 to 2500 nM |
| Cn1nc(N2CCC(=O)NC2=O)c2ccc(C3CCN(Cc4cccc(S(=O)(=O)N5CCC(Nc6ncc(C(F)(F)F)cn6)CC5)c4)CC3(F)F)cc21 (centres unmarked) [Example 3, 1-(6-(3,3-difluoro-1-(3-((4-((5-(trifluoromethyl)pyrimidin-2-yl)amino)-piperidin-1-yl)sulfonyl)benzyl)-piperidin-4-yl)-1-methyl-1H-indazol-3-yl)dihydropyrimidine-2,4(1H,3H)-dione] | 100 to 500 nM |
| Cn1nc(N2CCC(=O)NC2=O)c2ccc(C3CCN(CC4CCN(c5cc(S(=O)(=O)N6CCC(Nc7ncc(C(F)(F)F)cn7)CC6)ccc5F)CC4)CC3)cc21 [Example 142, 1-(6-(1-((1-(2-fluoro-5-((4-((5-(trifluoro-methyl)pyrimidin-2-yl)amino)piperidin-1-yl)sulfonyl)phenyl)piperidin-4-yl)methyl)-piperidin-4-yl)-1-methyl-1H-indazol-3-yl)dihydropyrimidine-2,4(1H,3H)-dione] | 1 to 100 nM |
| Cn1nc(N2CCC(=O)NC2=O)c2cc(C3CCN(CC4CCN(c5cccc(S(=O)(=O)N6CCC(Nc7ncc(C(F)(F)F)cn7)CC6)c5)CC4)CC3)ccc21 [Example 137, 1-(1-methyl-5-(1-((1-(3-((4-((5-(trifluoro-methyl)pyrimidin-2-yl)amino)piperidin-1-yl)sulfonyl)phenyl)piperidin-4-yl)methyl)-piperidin-4-yl)-1H-indazol-3-yl)dihydropyrimidine-2,4(1H,3H)-dione] | 100 to 500 nM |
| Cc1cnc(NC2CCN(S(=O)(=O)c3cccc(CN4CCC(c5ccc6c(N7CCC(=O)NC7=O)nn(C)c6c5)CC4)c3)CC2)nc1 [Example 60, 1-(1-methyl-6-(1-(3-((4-((5-methyl-pyrimidin-2-yl)amino)piperidin-1-yl)sulfonyl)benzyl)piperidin-4-yl)-1H-indazol-3-yl)dihydropyrimidine-2,4(1H,3H)-dione] | 500 to 2500 nM |

Further lines, results first:

| IC50 | Structure (SMILES) |
| --- | --- |
| 100 to 500 nM | Cn1c(=O)n(C2CCC(=O)NC2=O)c2cccc(C3CCN(Cc4cc(S(=O)(=O)N5CCC(Nc6ncc(OC(F)F)cn6)CC5)ccc4C#N)CC3)c21 (centres unmarked) [Example 196, 4-((4-((5-(difluoromethoxy)pyrimidin-2-yl)amino)piperidin-1-yl)sulfonyl)-2-((4-(1-(2,6-dioxopiperidin-3-yl)-3-methyl-2-oxo-2,3-dihydro-1H-benzo[d]imidazol-4-yl)piperidin-1-yl)methyl)benzonitrile] |
| 500 to 2500 nM | Cn1nc(N2CCC(=O)NC2=O)c2ccc(CN3CCN(c4cccc(S(=O)(=O)N5CCC(Nc6ncc(C(F)(F)F)cn6)CC5)c4)CC3)cc21 [Example 179, 1-(1-methyl-6-((4-(3-((4-((5-(trifluoromethyl)pyrimidin-2-yl)amino)piperidin-1-yl)sulfonyl)phenyl)piperazin-1-yl)methyl)-1H-indazol-3-yl)dihydropyrimidine-2,4(1H,3H)-dione] |
| 100 to 500 nM | Cn1nc(N2CCC(=O)NC2=O)c2cnc(C3CCN(CC4CCN(c5cccc(S(=O)(=O)N6CCC(Nc7ncc(Cl)cn7)CC6)c5)CC4)CC3)cc21 [Example 228, 1-(6-(1-((1-(3-((4-((5-chloropyrimidin-2-yl)amino)piperidin-1-yl)sulfonyl)phenyl)piperidin-4-yl)methyl)piperidin-4-yl)-1-methyl-1H-pyrazolo[4,3-c]pyridin-3-yl)dihydropyrimidine-2,4(1H,3H)-dione] |
| 100 to 500 nM | Cn1nc(N2CCC(=O)NC2=O)c2ccc(CCCN3CCN(c4cccc(S(=O)(=O)N5CCC(Nc6ncc(C(F)(F)F)cn6)CC5)c4)CC3)cc21 [Example 235, 1-(1-methyl-6-(3-(4-(3-((4-((5-(trifluoromethyl)pyrimidin-2-yl)amino)piperidin-1-yl)sulfonyl)phenyl)piperazin-1-yl)propyl)-1H-indazol-3-yl)dihydropyrimidine-2,4(1H,3H)-dione] |
| > 2500 nM | Cn1nc(N2CCC(=O)NC2=O)c2ccc(C3CCN(CC4CCN(c5ccc(F)c(S(=O)(=O)N6CCC(Nc7ncc(Cl)cn7)CC6)c5)CC4)CC3)cc21 [Example 189, 1-(6-(1-((1-(3-((4-((5-chloropyrimidin-2-yl)amino)piperidin-1-yl)sulfonyl)-4-fluorophenyl)piperidin-4-yl)methyl)piperidin-4-yl)-1-methyl-1H-indazol-3-yl)dihydropyrimidine-2,4(1H,3H)-dione] |
| > 2500 nM | CO[C@@H]1CN(S(=O)(=O)c2cccc(N3CCC(CN4CCC(c5ccc6c(N7CCC(=O)NC7=O)nn(C)c6c5)CC4)CC3)c2)CC[C@H]1Nc1ncc(Cl)cn1 (racemic) [Example 219, Rac-1-(6-(1-((1-(3-(((3R,4R)-4-((5-chloropyrimidin-2-yl)amino)-3-methoxypiperidin-1-yl)sulfonyl)phenyl)piperidin-4-yl)methyl)piperidin-4-yl)-1-methyl-1H-indazol-3-yl)dihydropyrimidine-2,4(1H,3H)-dione] |
| > 2500 nM | Cn1nc(N2CCC(=O)NC2=O)c2ccc(C3CCN(Cc4cccc(S(=O)(=O)N5CC(Nc6ncc(C(F)(F)F)cn6)C5)c4)CC3)cc21 [Example 154, 1-(1-methyl-6-(1-(3-((3-((5-(trifluoromethyl)pyrimidin-2-yl)amino)azetidin-1-yl)sulfonyl)benzyl)piperidin-4-yl)-1H-indazol-3-yl)dihydropyrimidine-2,4(1H,3H)-dione] |
